From US20190388349A1, “NON-TOXIC VEHICLE TO SOLUBILIZE, DELIVER, AND OBTAIN BIOLOGICAL ACTIVITY OF STEROID HORMONES AT CELL, TISSUE, AND ORGAN TARGETS, IN VITRO AND IN VIVO” (Government of the United States as Represented by the …, priority 2017, published 2019)

Columns and labels:
[1] = test system: MDA-MB-231 breast cancer cell; experiment: Cell death in MDA-MB-231 breast cancer cell cultures; type: cell-based; conditions: 25 μM β-AED, 25 μM β-AET, 5 nM E2; PEG 300 with LIPOFECTAMINE vehicle
Protocol: (§1) Hormone dependent, noninvasive, epithelial phenotype (ER/PR positive MCF-7 breast cancer cells) and hormone independent, invasive, mesenchymal phenotype (ER/PR negative MDA-MB-231 breast cancer cell) cell suspensions were acquired and prepared in complete medium (DMEM/F12, 10% FBS, 1% penicillin/streptomycin (Gibco)). Cellular concentration was adjusted to 2×10^5 cells/mL.
(§2) Androstene hormone solutions according to embodiments of the present invention were prepared from a first solution and a second solution. For the first solution, 3.0 mg of β-AED or β-AET was added to warm PEG 300 to prepare 50 mM stock. For the second solution, 10 μL of LIPOFECTAMINE (3:1 DOSPA: DOPE) was introduced to 100 μL of PEG 300, mixed, and incubated in a water bath at 42° C. for 30 min. The first and second solutions were then mixed in a sonicator water bath at 42° C. for 1 hr. The final concentration was 50 mM β-AED (or AET, as used).
(§3) A β-estradiol solution was also prepared by adding 2.7 mg of β-estradiol to 200 μL warmed PEG 300 with LIPOFECTAMINE and then further diluted 1:1000 with PEG-300. The final concentration was 50 μM.
A diluted β-AED (or β-AET) solution was prepared with complete medium at a final concentration of 50 μM (1:1000 dilute of 50 mM). Likewise, a diluted β-E2 solution was prepared with complete medium at a final concentration of 10 nM (1:5000 dilute of 50 μM). […]

293T cells = experiment: Biological function (phenotype, mobile cells) in 293T cells; type: cell-based, human; conditions: for mobile cells / mobile elements / processes (photograph): vehicle PEG 300 with LIPOFECTAMINE, 25 μM β-AED, 5 nM E2
Protocol: A non-toxic vehicle for administration of androstene hormones according to embodiments of the present invention was prepared from a first solution and a second solution. The first solution, comprising liposomal formulation, was placed in PEG 300 to a concentration of 5% and heated in a sonicating water bath to about 45° C. The second solution, comprising a selected hormone (one or more of 5Δ-androsten-3β, 17α-diol, 5Δ-androsten-3β, 17β-diol, or 5Δ-androsten-3β,7β,17β-triol), was placed in PEG 300 and heated in a sonicating water bath to about 45° C. The first and second solutions were then combine and stirred until dissolved.
Biological function was tested in 293T cells, which is a human embryonic cell line transformed with Large T antigen […] SV40. This hypotriploid (polyploid) cell line is particularly useful in such transformation studies and has very distinct phenotypes when grown. All androstene hormone treatment applications were at concentrations of 25 μM.

[2] = test system: MCF-7 breast cancer cells; experiment: Cell death and cell growth in MCF-7 breast cancer cell cultures; type: cell-based; conditions: 5 nM E2; for cell growth / cell density (microscopic photograph): MCF-7 grown for 5 days, 25 μM androstene hormone, PEG 300 with 5% LIPOFECTAMINE
Protocol: as §1, §2, §3
A diluted β-AED (or β-AET) solution was prepared with complete medium at a final concentration of 50 μM (1:1000 dilute of 50 mM). Likewise, a diluted β-E2 solution was prepared with complete medium at a final concentration of 10 nM (1:5000 dilute of 50 μM).
Using a 24-well plate, mixtures of 0.5 mL of cells per well with 0.5 mL of medium diluted hormone vehicle. Cell cultures were maintained at 90% humidity, 7% CO2, and 37° C.

[3] = vehicle PEG 300 only, androstene hormone 25 μM

C[C@]12CC[C@@H]3c4ccc(O)cc4CC[C@H]3[C@@H]1CC[C@@H]2O [E2, 17β-estradiol]
MDA-MB-231 Cell Death Amount [1]: Not observed | mobile cells / cell processes (photograph) (293T cells; [3]): many more cell processes | mobile cells / mobile elements / processes (photograph) (293T cells): many large islands with mobile processes, small islands with mobile process, and mobile cells forming interconnections with other elements | MCF7 Cell Death Amount ([2]; 25 μM β-AED, 25 μM β-AET, PEG 300 with LIPOFECTAMINE vehicle): Not observed | cell growth / cell density (microscopic photograph) [2]: thick and similar to the cell growth of FIGS. 14 and 16

C[C@]12CC[C@H]3[C@@H](CC=C4C[C@@H](O)CC[C@@]43C)[C@@H]1CC[C@@H]2O [β-AED, androst-5-ene-3β,17β-diol]
cell islands (photograph) (293T cells; [3]): larger | mobile cells / cell processes (photograph) (293T cells; [3]): significant reduction in mobile cells | mobile cells / mobile elements / processes (photograph) (293T cells): drastic decrease in, or morphological change, in mobile elements | cell growth / cell density (microscopic photograph) [2]: areas of decreased density

C[C@]12CC[C@H]3[C@@H]([C@@H](O)C=C4C[C@@H](O)CC[C@@]43C)[C@@H]1CC[C@@H]2O [β-AET, 5-androstene-3β,7β,17β-triol]
cell growth / cell density (microscopic photograph) [2]: thick and similar to the cell growth of FIG. 14
